“Also recorded” adds a separate entry of the source. Counter-ions that a name gives are not always drawn.
Legend:
[1] = test system: renal slices; test: Renal tissue slice uptake assay, wild-type and Oat3−/− mice; conditions: for inhibition of taurocholate, estrone sulfate and para-aminohippurate uptake in wild-type renal slices / ES transport in Oat3−/− renal slices in the presence of inhibitor: 1 mM inhibitor; for ES transport in Oat3−/− renal slices in the presence of inhibitor / renal slice uptake in Oat3−/− mice compared with wild-type: 100 nM estrone sulfate; for renal slice uptake in Oat3−/− mice compared with wild-type: 1 h, taurocholate or para-aminohippurate
Experimental: (§1) Data were calculated as tissue to medium T/M ratios and are presented as mean values ±S. E. (3 slices, treatment).
(§2) Renal and hepatic tissue slice preparation and uptake assays were performed according to standard protocols. Four- to 6-month-old mice were euthanized by CO2 inhalation, and the liver and kidneys were immediately placed into freshly oxygenated ice-cold saline. Tissue slices (˜0.5 mm; ˜5-10 mg, wet weight) were cut with a Stadie-Riggs microtome and maintained in ice-cold modified Cross and Taggart saline (in mM: 95 NaCl, 80 mannitol, 5 KCl, 0.74 CaCl2, and 9.5 Na2PO4, pH 7.4). […] Conditions for the PAH experiments were optimized for Oat1 by the addition of 10 μM glutarate to the uptake buffer. After incubation the slices were removed from the uptake medium, blotted, weighed, dissolved in 1 ml of 1M NaOH, neutralized with 1 ml of 1M HCl, and assayed by liquid scintillation spectroscopy. Duplicate medium samples (50 μl) were also assayed, and data are presented as tissue to medium (T/M) ratios (i.e. dpm/mg of tissue divided by dpm/μl of medium).
Statistics. The renal slice data were compared using unpaired Student's t-test. Differences in mean values between the control and inhibited conditions were considered significant when p≦0.05.

[2] = test system: choroid plexus; test: Accumulation in isolated choroid plexus, confocal fluorescence microscopy, wild-type and Oat3−/− mice; conditions: for reduction of cellular accumulation (cellular fluorescence) in CP from Oat3−/− mice: both, mouse, 45 min, 1 μM, pH 7.4
Source text: The CP is composed of capillary projections surrounded by a single layer of cells that protrude into the cerebrospinal fluid-filled ventricles of the brain. The orientation is such that the CSF bathes the apical membrane of the cell and the basal membrane is toward the underlying fenestrated capillary. (A and C) Transmitted light images of wild-type and Oat3^−/− CP, respectively, showing the tissue structure. (B and D) Corresponding fluorescence micrographs of the CP shown in (A) and (C). Confocal images were acquired 45 min after exposure to 1 μM FL in the aCSF medium. […] The positions of representative cells and capillaries (CUD) are indicated by arrows. A 20-μm bar is shown.
Fluorescence levels in cells and vessels of CP from 4 wild-type and 4 Out3^−/− mice were measured (n=5-10 adjacent cellular and capillary areas/CP). […] Data are given as mean ±S.E. for each animal.
Choroid plexus isolation. Adult male and female wild-type and Oat3^−/− mice were euthanized with CO2.
Confocal Fluorescence Microscopy. CP were imaged as using an inverted Zeiss model 510 laser scanning confocal microscope fitted with a 40μ water immersion objective (numeric aperture, 1.2). Samples were illuminated with the 488-nm line of an argon laser; a 510-nm dichroic filter was in the light path, and a long pass emission filter (515 nm) was positioned in front of the detector. […] For each CP, 5-10 adjacent cellular and capillary areas were selected. After background subtraction, the average pixel intensity for each area was calculated and the values reported graphically for each CP are the means ±S.E. for all selected areas (n˜5-10). Values reported in the text are mean ±S.E. of the individual mean values for each CP as determined above (n˜4-6 animals/group).

[3] = test system: hepatic slices; test: Hepatic tissue slice uptake assay, wild-type and Oat3−/− mice; conditions: 1 h
Experimental: as §1, §2

[4] = target: T1, mouse Oat3 (Mus musculus, UniProt O88909); conditions: 90 nM [3H]estrone sulfate
T1 sequence (O88909 1-537): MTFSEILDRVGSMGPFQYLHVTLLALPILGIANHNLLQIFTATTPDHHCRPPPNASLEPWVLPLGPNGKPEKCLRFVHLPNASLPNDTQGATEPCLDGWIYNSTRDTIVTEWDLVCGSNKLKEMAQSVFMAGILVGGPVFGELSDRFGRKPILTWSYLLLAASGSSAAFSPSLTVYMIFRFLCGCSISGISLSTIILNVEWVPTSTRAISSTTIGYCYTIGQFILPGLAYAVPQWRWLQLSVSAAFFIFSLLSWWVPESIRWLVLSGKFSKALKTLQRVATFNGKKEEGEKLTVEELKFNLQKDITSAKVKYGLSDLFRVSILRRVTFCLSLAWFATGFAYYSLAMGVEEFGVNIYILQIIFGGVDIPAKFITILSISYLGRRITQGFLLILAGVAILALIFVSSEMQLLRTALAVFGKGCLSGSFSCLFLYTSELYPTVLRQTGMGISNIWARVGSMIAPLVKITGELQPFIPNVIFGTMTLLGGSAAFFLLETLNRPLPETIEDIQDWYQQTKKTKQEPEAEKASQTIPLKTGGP
Experimental: FIG. 13 oocytes three days after injection with either mouse Oat1 or mouse Oat3 cRNA. Oocytes were randomly sorted into test groups and 1 h uptake determined.
Transport Assays-Xenopus oocyte isolation procedures and uptake assay. Ovaries were removed from tricaine methanesulfonate anesthetized adult female Xenopus laevis and follicle-free stage V and stage VI oocytes were isolated by treatment with collagenase A. After an overnight recovery period in Barth's buffer at 18° C., oocytes were microinjected with 20 ng of capped cRNA synthesized from linearized cDNA (mMessage mMachine in vitro transcription kit, Ambion, Inc., Austin, Tex.). […] Oocyte radioactivity was measured in disintegrations/min (dpm) in a Packard 1600TR liquid scintillation counter with external quench correction.

**Q.** How did the “inhibition of taurocholate, estrone sulfate and para-aminohippurate uptake in wild-type renal slices” value [1] turn out when `O=C1OC(c2ccc(O)c(S(=O)(=O)O)c2)(c2ccc(O)c(S(=O)(=O)O)c2)c2c(Br)c(Br)c(Br)c(Br)c21` [BSP, bromo-sulfophthalein] was run?
**A.** The value was “sensitive to inhibition”.

**Q.** What about the “ES transport in Oat3−/− renal slices in the presence of inhibitor” value [1] of the same molecule?
**A.** The value was “additional drop”.

**Q.** Which results are given for `O=C1OC2(c3ccc(O)cc3Oc3cc(O)ccc32)c2ccccc21` [FL, fluorescein]?
**A.** reduction of cellular accumulation (cellular fluorescence) in CP from Oat3−/− mice ([2]; C57BL/6J): ~75%; reduction of cellular accumulation (cellular fluorescence) in CP from Oat3−/− mice [2]: about 75%

**Q.** Which results are given for `Nc1ccc(C(=O)NCC(=O)O)cc1` [PAH, para-aminohippurate]?
**A.** renal slice uptake in Oat3−/− mice compared with wild-type ([1]; 10 μM TEA): significant (p<0.001) decrease; also recorded: significantly reduced; hepatic slice uptake [3]: complete lack; mediated uptake in Oat3-expressing oocytes ([4]; 1 h uptake, 10 μM [3H]PAH, 500 nM [3H]taurocholate): observed

**Q.** For `C=C[C@H]1C[N@@]2CC[C@H]1C[C@H]2[C@H](O)c1ccnc2ccc(OC)cc12` [Quinine sulfate, quinine sulfate], which “inhibition of renal uptake of [14C]TEA” value ([1]; 200 μM quinine sulfate, 10 μM TEA) is on record?
**A.** Its value is “sensitive”.

**Q.** For `CC[N+](CC)(CC)CC` [TEA, tetraethylammonium], which “renal slice uptake in Oat3−/− mice compared with wild-type” value ([1]; 10 μM TEA) is on record?
**A.** The value was “unaltered; also recorded: unaffected”.

**Q.** What does the source list for `CCCN(CCC)S(=O)(=O)c1ccc(C(=O)O)cc1` [probenecid]?
**A.** inhibition of residual FL uptake in CP from Oat3 knockout animals [2]: probenecid-sensitive; inhibition of taurocholate, estrone sulfate and para-aminohippurate uptake in wild-type renal slices [1]: sensitive to inhibition; ES transport in Oat3−/− renal slices in the presence of inhibitor [1]: additional drop; inhibition of Oat3-mediated ES transport in oocytes ([4]; 1 mM probenecid): completely blocked

— patent US20050241012A1, “Multigene profiling in the kidney to tailor drug therapy” (priority 2003, published 2005)
